{"source": "ChEMBL document CHEMBL5543174", "about": "“A Nonbactericidal Anionic Antimicrobial Peptide Provides Prophylactic and Therapeutic Efficacies against Bacterial Infections in Mice by Immunomodulatory-Antithrombotic Duality” (J Med Chem, 2024)", "key": {"[1]": {"system": "Mus musculus", "test": "Anticoagulation activity in mouse infected with Carbapenem-resistant Escherichia coli assessed as increase in plasma AT-III expression at 10 mg/kg,ip pre-administrated 5 hrs before bacterial infection measured after 24 hrs by ELISA", "format": "functional, organism-based", "settings": "time 29.0 hrs"}, "[2]": {"system": "Peritoneal macrophage", "test": "Induction of nitric oxide production in mouse Peritoneal macrophage incubated for 6 hrs by Griess reagent based ELISA", "format": "functional, cell-based"}, "[3]": {"system": "Mus musculus", "test": "Immunomodulatory activity in cyclophosphamide immunosuppressed C57BL/6 mouse with neutrophil depletion model assessed as increase in number of neutrophil in peritoneal lavage at 10 mg/kg,ip administration measured after 12 hrs by flow cytometry", "format": "functional, organism-based"}, "[4]": {"system": "Mus musculus", "test": "Induction of chemotaxis in C57BL/6 mouse assessed as upregulation of CXCL1 expression in peritoneal lavage at 10 mg/kg,ip administration measured at 5 to 24 hrs by ELISA", "format": "functional, organism-based", "settings": "time 5-24 hrs"}, "[5]": {"system": "Peritoneal macrophage cell", "test": "Induction of chemotaxis in mouse Peritoneal macrophage assessed as upregulation of CXCL1 production at 100 ug/ml preincubated with KN-62 followed by compound addition by ELISA", "format": "functional, cell-based", "settings": "dose 100.0 µg/ml"}, "[6]": {"system": "Staphylococcus aureus", "test": "Antibacterial activity against Methicillin-resistant Staphylococcus aureus infected in C57BL/6 mouse assessed as increase in survival rate at 10 mg/kg,ip administrated 5 hrs after bacterial infection measured after 7 days", "format": "functional, organism-based", "settings": "time 7.0 day"}, "[7]": {"system": "Peritoneal macrophage", "test": "Immunoregulatory activity in mouse Peritoneal macrophage assessed as change in total JNK expression at 25 to 100 ug/ml incubated for 1 hr by Western blotting analysis", "format": "functional, cell-based", "settings": "dose 25-100 µg/ml"}, "[8]": {"system": "Peritoneal macrophage", "test": "Immunoregulatory activity in mouse Peritoneal macrophage assessed as upregulation of JNK phosphorylation incubated for 1 hr by Western blotting analysis", "format": "functional, cell-based"}, "[9]": {"system": "Escherichia coli", "test": "Antibacterial activity against Escherichia coli ATCC 25922 infected in C57BL/6 mouse assessed as reduction in IL-1beta level in serum at 10 mg/kg,ip pre-administrated 5 hrs before bacterial infection measured after 24 hrs by ELISA", "format": "functional, organism-based", "settings": "time 29.0 hrs"}, "[10]": {"system": "Escherichia coli", "test": "Antibacterial activity against Escherichia coli ATCC 25922 infected in C57BL/6 mouse assessed as reduction in IL-6 level in serum at 10 mg/kg,ip pre-administrated 5 hrs before bacterial infection measured after 24 hrs by ELISA", "format": "functional, organism-based", "settings": "time 29.0 hrs"}, "[11]": {"system": "Lymphocyte", "test": "Immunomodulatory activity in mouse spleen derived lymphocyte assessed as increase in lymphocyte proliferation at < 200 ug/ml incubated for 24 hrs by CCK-8 assay", "format": "functional, cell-based", "settings": "dose < 200.0 µg/ml"}, "[12]": {"system": "Staphylococcus aureus", "test": "Antibacterial activity against Staphylococcus aureus ATCC 25923 infected in C57BL/6 mouse assessed as reduction in TNF-alpha level in peritoneal fluid at 10 mg/kg,ip administrated 5 hrs after bacterial infection measured after 24 hrs by ELISA", "format": "functional, organism-based", "settings": "time 19.0 hrs"}, "[13]": {"system": "Staphylococcus aureus", "test": "Antibacterial activity against Methicillin-resistant Staphylococcus aureus infected in C57BL/6 mouse assessed as reduction in bacterial load at 10 mg/kg,ip pre-administrated 5 hrs before bacterial infection", "format": "functional, organism-based"}, "[14]": {"system": "Neutrophil", "test": "Induction of degranulation in mouse bone marrow derived neutrophil assessed as increase in MMP-9 release at 25 to 100 ug/ml incubated for 6 hrs by ELISA", "format": "functional, cell-based", "settings": "dose 25-100 µg/ml"}, "[15]": {"system": "Staphylococcus aureus", "test": "Antibacterial activity against Methicillin-resistant Staphylococcus aureus infected in C57BL/6 mouse assessed as reduction in TNF-alpha level in serum at 10 mg/kg,ip administrated 5 hrs after bacterial infection measured after 24 hrs by ELISA", "format": "functional, organism-based", "settings": "time 19.0 hrs"}, "[16]": {"system": "Staphylococcus aureus", "test": "Antibacterial activity against Methicillin-resistant Staphylococcus aureus infected in C57BL/6 mouse assessed as increase in survival rate at 10 mg/kg,ip pre-administrated 5 hrs before bacterial infection measured after 7 days", "format": "functional, organism-based", "settings": "time 7.0 day"}, "[17]": {"system": "Mus musculus", "test": "Anticoagulation activity in mouse infected with Carbapenem-resistant Escherichia coli assessed as increase in plasma TFPI expression at 10 mg/kg,ip administrated 5 hrs after bacterial infection measured after 24 hrs by ELISA", "format": "functional, organism-based", "settings": "time 19.0 hrs"}, "[18]": {"system": "Staphylococcus aureus", "test": "Antibacterial activity against Methicillin-resistant Staphylococcus aureus infected in C57BL/6 mouse assessed as reduction in TNF-alpha level in peritoneal fluid at 10 mg/kg,ip administrated 5 hrs after bacterial infection measured after 24 hrs by ELISA", "format": "functional, organism-based", "settings": "time 19.0 hrs"}, "[19]": {"system": "Peritoneal macrophage cell", "test": "Induction of phagocytosis in mouse Peritoneal macrophage assessed as increase in neutral red dye uptake by measuring optical density absorbance at 50 ug/ml incubated for 24 hrs followed by dye addition measured after 4 hrs by absorbance based assay (reference value: 0.089)", "format": "functional", "settings": "dose 50 µg/ml; time 28 hrs"}, "[20]": {"system": "Mus musculus", "test": "Anticoagulation activity in mouse infected with Methicillin-resistant Staphylococcus aureus assessed as increase in plasma APC expression at 10 mg/kg,ip administrated 5 hrs after bacterial infection measured after 24 hrs by ELISA", "format": "functional, organism-based", "settings": "time 19.0 hrs"}, "[21]": {"system": "Peritoneal macrophage cell", "test": "Induction of chemotaxis in mouse Peritoneal macrophage assessed as upregulation of IL-1beta expression at 25 to 100 ug/ml incubated for 6 hrs by ELISA", "format": "functional, cell-based", "settings": "dose 25-100 µg/ml"}, "[22]": {"system": "Mus musculus", "test": "Anticoagulation activity in mouse assessed as change in plasma AT-III expression at 10 mg/kg,ip measured after 24 hrs by ELISA", "format": "functional, organism-based"}, "[23]": {"system": "Staphylococcus aureus", "test": "Antibacterial activity against Methicillin-resistant Staphylococcus aureus infected in C57BL/6 mouse assessed as reduction in IL-1beta level in peritoneal fluid at 10 mg/kg,ip administrated 5 hrs after bacterial infection measured after 24 hrs by ELISA", "format": "functional, organism-based", "settings": "time 19.0 hrs"}, "[24]": {"system": "Neutrophil", "test": "Induction of chemotaxis in mouse bone marrow derived neutrophil assessed as increase in neutrophil migration at 100 ug/ml preincubated with WRW4 for 30 mins followed by compound addition measured after 8 hrs by crystal violet staining based indirect transwell assay", "format": "functional, cell-based", "settings": "dose 100.0 µg/ml"}, "[25]": {"system": "Escherichia coli", "test": "Antibacterial activity against Carbapenem-resistant Escherichia coli infected in C57BL/6 mouse assessed as reduction in TNF-alpha level in peritoneal fluid at 10 mg/kg,ip pre-administrated 5 hrs before bacterial infection measured after 24 hrs by ELISA", "format": "functional, organism-based", "settings": "time 29.0 hrs"}, "[26]": {"system": "Peritoneal macrophage cell", "test": "Induction of chemotaxis in mouse Peritoneal macrophage assessed as increase in macrophage migration at 25 to 100 ug/ml incubated for 8 hrs by crystal violet staining based direct transwell assay", "format": "functional, cell-based", "settings": "dose 25-100 µg/ml"}, "[27]": {"system": "Peritoneal macrophage cell", "test": "Induction of chemotaxis in mouse Peritoneal macrophage assessed as increase in macrophage migration at 100 ug/ml preincubated with PTX for 30 mins followed by compound addition measured after 8 hrs by crystal violet staining based indirect transwell assay", "format": "functional, cell-based", "settings": "dose 100.0 µg/ml"}, "[28]": {"system": "Escherichia coli", "test": "Antibacterial activity against Carbapenem-resistant Escherichia coli infected in C57BL/6 mouse assessed as reduction in IL-6 level in serum at 10 mg/kg,ip pre-administrated 5 hrs before bacterial infection measured after 24 hrs by ELISA", "format": "functional, organism-based", "settings": "time 29.0 hrs"}, "[29]": {"system": "Staphylococcus aureus", "test": "Antibacterial activity against Methicillin-resistant Staphylococcus aureus infected in C57BL/6 mouse assessed as reduction in TNF-alpha level in peritoneal fluid at 10 mg/kg,ip pre-administrated 5 hrs before bacterial infection measured after 24 hrs by ELISA", "format": "functional, organism-based", "settings": "time 29.0 hrs"}, "[30]": {"system": "Peritoneal macrophage", "test": "Induction of chemotaxis in mouse Peritoneal macrophage assessed as upregulation of CXCL1 production at 100 ug/ml preincubated with WRW4 followed by compound addition by ELISA", "format": "functional, cell-based", "settings": "dose 100.0 µg/ml"}, "[31]": {"system": "Neutrophil", "test": "Induction of phagocytosis in mouse bone marrow derived neutrophil cultured with CFSE-labeled Methicillin-resistant Staphylococcus aureus incubated for 1.5 hrs followed by bacterial exposure for 1 hr by flow cytometry", "format": "functional, cell-based", "settings": "time 2.5 hrs"}}, "note": "Calls of active or inactive are those of the source. The rule behind the calls is not given here."}
{"smiles": "CC[C@H](C)[C@H](NC(=O)[C@@H]1CSSC[C@H](NC(=O)[C@H](CCC(=O)O)NC(=O)[C@@H](NC(=O)[C@H](CCCCN)NC(=O)[C@H](Cc2c[nH]cn2)NC(=O)[C@@H](NC(=O)[C@H](CCCCN)NC(=O)[C@H](CCC(=O)O)NC(=O)[C@H](C)NC(=O)[C@H](CCC(=O)O)NC(=O)[C@H](CCC(=O)O)NC(=O)[C@H](CCC(=O)O)NC(=O)[C@H](C)N)[C@@H](C)O)[C@@H](C)O)C(=O)N[C@@H](CC(C)C)C(=O)N[C@@H](CCC(=O)O)C(=O)N1)C(=O)N[C@@H](Cc1ccccc1)C(=O)N[C@H](C(=O)N[C@@H](CC(C)C)C(=O)N[C@@H](CC(C)C)C(=O)N1CCC[C@H]1C(=O)N1CCC[C@@H]1C(=O)N[C@H](C)C(=O)O)[C@@H](C)O", "values": [{"measurement": "Activity", "setting": "[1]", "value": "Active"}, {"measurement": "Activity", "setting": "[2]", "value": "Dose-Dependent Effect"}, {"measurement": "Activity", "setting": "[3]", "value": "Active"}, {"measurement": "Activity", "setting": "[4]", "value": "inactive"}, {"measurement": "Activity", "setting": "[5]", "value": "Active"}, {"measurement": "Activity", "setting": "[6]", "value": "Active"}, {"measurement": "Activity", "setting": "[7]", "value": "inactive"}, {"measurement": "Activity", "setting": "[8]", "value": "Dose-Dependent Effect"}, {"measurement": "Activity", "setting": "[9]", "value": "Active"}, {"measurement": "Activity", "setting": "[10]", "value": "Active"}, {"measurement": "Activity", "setting": "[11]", "value": "inactive"}, {"measurement": "Activity", "setting": "[12]", "value": "Active"}, {"measurement": "Activity", "setting": "[13]", "value": "Active"}, {"measurement": "Activity", "setting": "[14]", "value": "inactive"}, {"measurement": "Activity", "setting": "[15]", "value": "Active"}, {"measurement": "Activity", "setting": "[16]", "value": "Active"}, {"measurement": "Activity", "setting": "[17]", "value": "Active"}, {"measurement": "Activity", "setting": "[18]", "value": "Active"}, {"measurement": "OD", "setting": "[19]", "value": 0.102}, {"measurement": "Activity", "setting": "[20]", "value": "Active"}, {"measurement": "Activity", "setting": "[21]", "value": "inactive"}, {"measurement": "Activity", "setting": "[22]", "value": "inactive"}, {"measurement": "Activity", "setting": "[23]", "value": "Active"}, {"measurement": "Activity", "setting": "[24]", "value": "Active"}, {"measurement": "Activity", "setting": "[25]", "value": "Active"}, {"measurement": "Activity", "setting": "[26]", "value": "inactive"}, {"measurement": "Activity", "setting": "[27]", "value": "inactive"}, {"measurement": "Activity", "setting": "[28]", "value": "Active"}, {"measurement": "Activity", "setting": "[29]", "value": "Active"}, {"measurement": "Activity", "setting": "[30]", "value": "Active"}, {"measurement": "Activity", "setting": "[31]", "value": "Dose-Dependent Effect"}]}
